Laboratory results from US11497788B2, “Supramolecular glycosaminoglycans” (Northwestern University, priority 2015, dated 2022).

Experiments:
[1] = Zeta potential measurements; format: physicochemical
Procedure: Zeta Potential Measurements: Zeta (ζ) potential was measured using a Malvern Zetasizer Nano ZS (n=3). PA samples were thermally annealed as described for Cryo-TEM. Following, PAs were diluted to 0.5 mM in DMEM. PA solutions were water-bath sonicated for 1 min prior to zeta potential measurement. Background reading from DMEM alone was subtracted from the final measurements.

[2] = system: ALP and Osteocalcin (OCN) gene expression in C2C12 cells; test: Quantitative RT-PCR of ALP and Osteocalcin in C2C12 cells; format: cell-based, mouse; conditions: relative to heparin or PA nanofibers displaying uncharged GlcNAc; day 3
Procedure: (§1) C2C12 Cell Culture: C2C12 mouse myoblasts (ATCC) were maintained in Dulbecco's Modified Eagle's Medium with high glucose and L-glutamine (DMEM, ATCC), supplemented with 100 U/mL of penicillin and 100 μg/mL streptomycin (P/S, Life Technologies) and 10% heat inactivated FBS (Life Technologies), and passaged at 80-90% confluence. Media was changed every 2 days. Passages 3 to 8 were used for experiments. Cells were grown at 37° C., 5% CO2 in a humidified atmosphere. Cells were detached following a 3 minute incubation at 37° C. with 0.05% Trypsin-EDTA (Life Technologies), then resuspended in DMEM (10% FBS). Unless stated otherwise, cells were seeded at 75,000 cells/mL (400 μL/well in a 48-well plate), and allowed to attach for a minimum of 3 hours prior to experiments.
C2C12 Osteoblast Differentiation: PA samples were thermally annealed as described for Cryo-TEM. […] Cells were cultured for 3 days without changing the media, and osteoblast differentiation was assessed.
Quantitative RT-PCR: The gene expression levels were determined by real-time, reverse-transcription-PCR using an iQ5 Real-Time PCR Detection System (Bio-Rad). […] To confirm the specificity of the amplified products, melting curves were performed by cooling samples at 55° C. for 30 s and then increasing the temperature to 94° C. at 0.5° C./sec with continuous fluorescence measurement. […]

[3] = system: BMP-2 signaling in C2C12 cells; test: C2C12 osteoblast differentiation with BMP-2, alkaline phosphatase (ALP) activity; format: cell-based, mouse; conditions: C2C12, BMP-2 75 ng/mL, 3 days
Procedure: as §1
C2C12 Osteoblast Differentiation: PA samples were thermally annealed as described for Cryo-TEM. PA solutions were spun down, pipetted for homogeneous mixing, then diluted to 1 mM with DMEM (no FBS). In a 1.5 mL microcentrifuge tube, PA solutions were further diluted with DMEM (5% FBS), gently vortexed, and appropriate amounts of GFs (20 μg/mL) were added to yield [PA]=125 μM and [GF]=375 ng/mL. For mixing, the microcentrifuge tube was gently inverted several times by hand. Following, cells were treated by adding a 100 μl, of the PA/GF mixture per well (48-well plate), yielding a final 500 μl, differentiation medium with [PA]=25 μM and [GF]=75 ng/mL. For controls, the initial 5 mM PA solution was substituted with either PBS alone (saline) or heparin in PBS at appropriate concentrations. Cells were cultured for 3 days without changing the media, and osteoblast differentiation was assessed.
Alkaline Phosphatase Activity: Alkaline phosphatase (ALP) activity was measured as a marker of osteoblast differentiation (ref. 38; incorporated by reference in its entirety). On day 3, media was removed, and cells were lysed with a 100 μL, of M-PER Mammalian Protein Extraction Reagent (Life Technologies), supplemented with 1×Halt Protease Inhibitor Cocktail (Thermo Fisher Scientific), for 30 minutes on an orbital shaker. A 20 μL, volume of the cell lysate was incubated with 200 μL, of the QUANTI-Blue colorimetric ALP assay (InvivoGen) for 30 minutes to 2 hours at 37° C., in duplicates. The ALP activity was assessed by reading the OD at 630 nm with Cytation3 microplate reader (BioTek). Data were normalized to the respective endogenous DNA levels using Quant-iT PicoGreen dsDNA Assay Kit (Life Technologies). Two separate experiments with 4 replicates each were averaged for statistical analysis. […]

[4] = system: FGF-2 signaling in BaF3-FR1C cells; test: BaF3-FR1C cell proliferation assay with FGF-2; format: cell-based; conditions: FGF-2 10 ng/ml; 2 days
Procedure: BaF3-FR1C Cell Proliferation Assay: Upon reception of a frozen vial, BaF3-FR1C cells were cultured and expanded in growth media as recommended (40). The cells were grown in RPMI1640 medium with 2 mM L-glutamine (Thermo Fisher) containing 10% newborn bovine calf serum (Thermo Fisher), 0.5 ng/mL of recombinant mouse IL-3 (Peprotech), 600 μg/mL of G418 sulfate (Thermo Fisher), 50 nM of 2-mercaptoethanol (Thermo Fisher), and 100 unit/mL penicillin and 100 μg/mL streptomycin (Thermo Fisher) at 37° C., 5% CO2. The medium was changed every 2 days. Experiments were performed using with 1-3 week old passaged cells. The BaF3-FR1C cells were first assessed with the CyQUANT direct cell proliferation assay (Thermo Fisher), but no change in fluorescent signal was observed from a 0 to 2 day old culture in growth conditions although the growth was evident under the microscope. […] For assays testing the effect of heparin and glycopeptide nanofibers FGF-2 induced proliferation, 10,000 cells/well were plated in 50 μl of growth media without G148 sulfate and recombinant mouse IL-3 (NT media) in a 96-well plate. We then added a 2×concentrated mixture of FGF-2 with heparin or glycopeptide nanofibers in the same NT media. […] The absorbance was read at 490 nm in a Cytation 3 instrument (BioTek) and cell growth was compared to cells in NT media. […]

3,4,6S-GlcNAc PA (VVAAEEK) [PA 1, glycosylated peptide amphiphile: Alkyne PA click-conjugated with trisulfated monosaccharide 1]
zeta potential / net charge of nanofibers [1]: highest net negative charge | ALP mRNA expression [2]: higher expressions | osteocalcin mRNA expression [2]: higher expressions | effect on BMP-2 activity / osteoblast differentiation (in words) [3]: dramatically amplified | FGF-2 mediated cell proliferation [4]: improved
